Test results published in ChEMBL document CHEMBL3885881, “DrugMatrix”.

Species: Rattus norvegicus
Assay: DrugMatrix - Regimen: Daily Repeat
Type: toxicity, organism-based, Sprague-Dawley
Design: regimen Daily Repeat, gender Male, age 6-8 weeks
Conditions: in vivo, po, route oral GAVAGE, vehicle .5 % CMC; for BASOPHIL / EOSINOPHIL / ERYTHROCYTE COUNT / HEMATOCRIT / HEMOGLOBIN / LEUKOCYTE COUNT / LYMPHOCYTE / MEAN CORPUSCULAR HEMOGLOBIN / MEAN CORPUSCULAR HEMOGLOBIN CONCENTRATION / MONOCYTE / NEUTROPHIL / PLATELET COUNT: tissue Blood; for ALANINE AMINOTRANSFERASE / ALBUMIN / ALKALINE PHOSPHATASE / ASPARTATE AMINOTRANSFERASE / BLOOD UREA NITROGEN / CHLORIDE / CHOLESTEROL / CREATINE PHOSPHOKINASE / CREATININE / GLUCOSE / PHOSPHORUS / POTASSIUM / SODIUM / TOTAL BILIRUBIN / TOTAL PROTEIN: tissue Plasma
[1] = 0 mg/kg, 72 h, dose level Control, time 3 day
[2] = 0 mg/kg, 120 h, dose level Control, time 5 day
[3] = 60 mg/kg, 72 h, dose level Low, time 3 day
[4] = 60 mg/kg, 120 h, dose level Low, time 5 day

In the case of `CC(C)Cc1ccc([C@H](C)C(=O)O)cc1` [DEXIBUPROFEN], the BASOPHIL [1] is reported as 1.52%, the EOSINOPHIL [1] is reported as 0.98% and the “ERYTHROCYTE COUNT” value [1] is reported as 6.96 x10E6/uL. The HEMATOCRIT [1] was 44.65%, the HEMOGLOBIN [1] was 13.62 G/DL and the “LEUKOCYTE COUNT” value [1] was 9.83 x10E3/uL. For the same compound, the LYMPHOCYTE [1] was 76.48%, the “MEAN CORPUSCULAR HEMOGLOBIN” value [1] was 19.57 pg and the “MEAN CORPUSCULAR HEMOGLOBIN CONCENTRATION” value [1] was 30.47 G/DL. For the same compound, the MONOCYTE [1] was 2.13%, the NEUTROPHIL [1] was 18.6% and the “PLATELET COUNT” value [1] was 1217.17 x10E3/uL. The “ALANINE AMINOTRANSFERASE” value [1] was 41 u/L, the ALBUMIN [1] was 3.77 G/DL and the “ALKALINE PHOSPHATASE” value [1] was 411.83 u/L. The “ASPARTATE AMINOTRANSFERASE” value [1] was 62.83 u/L, the “BLOOD UREA NITROGEN” value [1] was 15.17 mg/dL and the CHLORIDE [1] was 104.33 MEQ/L. For the same compound, the CHOLESTEROL [1] was 71.17 mg/dL, the “CREATINE PHOSPHOKINASE” value [1] was 123.5 u/L and the CREATININE [1] was 0.55 mg/dL. The GLUCOSE [1] was 182.67 mg/dL, the PHOSPHORUS [1] was 11.23 mg/dL and the POTASSIUM [1] was 7.03 MEQ/L. The SODIUM [1] was 148 MEQ/L, the “TOTAL BILIRUBIN” value [1] was 0.57 mg/dL and the “TOTAL PROTEIN” value [1] was 6.85 G/DL. For the same compound, the BASOPHIL [2] was 1.35%, the EOSINOPHIL [2] was 0.43% and the “ERYTHROCYTE COUNT” value [2] was 6.96 x10E6/uL. The HEMATOCRIT [2] was 44.35%, the HEMOGLOBIN [2] was 13.98 G/DL and the “LEUKOCYTE COUNT” value [2] was 9.45 x10E3/uL. The LYMPHOCYTE [2] was 80.83%, the “MEAN CORPUSCULAR HEMOGLOBIN” value [2] was 20.1 pg and the “MEAN CORPUSCULAR HEMOGLOBIN CONCENTRATION” value [2] was 31.52 G/DL. For the same compound, the MONOCYTE [2] was 2.37%, the NEUTROPHIL [2] was 14.05% and the “PLATELET COUNT” value [2] was 1298 x10E3/uL. For the same compound, the “ALANINE AMINOTRANSFERASE” value [2] was 42.17 u/L, the ALBUMIN [2] was 3.77 G/DL and the “ALKALINE PHOSPHATASE” value [2] was 419 u/L. For the same compound, the “ASPARTATE AMINOTRANSFERASE” value [2] was 66.67 u/L, the “BLOOD UREA NITROGEN” value [2] was 16.67 mg/dL and the CHLORIDE [2] was 103.17 MEQ/L. The CHOLESTEROL [2] was 66.33 mg/dL, the “CREATINE PHOSPHOKINASE” value [2] was 148.33 u/L and the CREATININE [2] was 0.58 mg/dL. It also gave a GLUCOSE [2] of 196.83 mg/dL, a PHOSPHORUS [2] of 11.8 mg/dL and a POTASSIUM [2] of 6.47 MEQ/L. The SODIUM [2] was 148.33 MEQ/L, the “TOTAL BILIRUBIN” value [2] was 0.53 mg/dL and the “TOTAL PROTEIN” value [2] was 6.77 G/DL. For the same compound, the BASOPHIL [3] was 1.63%, the EOSINOPHIL [3] was 0.33% and the “ERYTHROCYTE COUNT” value [3] was 7.19 x10E6/uL. For the same compound, the HEMATOCRIT [3] was 45.6%, the HEMOGLOBIN [3] was 14.37 G/DL and the “LEUKOCYTE COUNT” value [3] was 11 x10E3/uL. The LYMPHOCYTE [3] was 73.1%, the “MEAN CORPUSCULAR HEMOGLOBIN” value [3] was 19.97 pg and the “MEAN CORPUSCULAR HEMOGLOBIN CONCENTRATION” value [3] was 31.47 G/DL. For the same compound, the MONOCYTE [3] was 2.23%, the NEUTROPHIL [3] was 22.3% and the “PLATELET COUNT” value [3] was 1212.33 x10E3/uL. For the same compound, the “ALANINE AMINOTRANSFERASE” value [3] was 40.33 u/L, the ALBUMIN [3] was 3.57 G/DL and the “ALKALINE PHOSPHATASE” value [3] was 328 u/L. For the same compound, the “BLOOD UREA NITROGEN” value [3] was 13.33 mg/dL, the CHLORIDE [3] was 104 MEQ/L and the CHOLESTEROL [3] was 71 mg/dL. The “CREATINE PHOSPHOKINASE” value [3] was 116 u/L, the CREATININE [3] was 0.6 mg/dL and the GLUCOSE [3] was 170.33 mg/dL. The PHOSPHORUS [3] was 11.63 mg/dL, the POTASSIUM [3] was 6.3 MEQ/L and the SODIUM [3] was 150 MEQ/L. For the same compound, the “TOTAL BILIRUBIN” value [3] was 0.37 mg/dL, the BASOPHIL [4] was 1.23% and the EOSINOPHIL [4] was 0.3%. For the same compound, the “ERYTHROCYTE COUNT” value [4] was 6.82 x10E6/uL, the HEMATOCRIT [4] was 42.17% and the HEMOGLOBIN [4] was 13.37 G/DL. The “LEUKOCYTE COUNT” value [4] was 13 x10E3/uL, the LYMPHOCYTE [4] was 76.73% and the “MEAN CORPUSCULAR HEMOGLOBIN” value [4] was 19.6 pg. For the same compound, the “MEAN CORPUSCULAR HEMOGLOBIN CONCENTRATION” value [4] was 31.67 G/DL, the MONOCYTE [4] was 2.2% and the NEUTROPHIL [4] was 18.83%. For the same compound, the “PLATELET COUNT” value [4] was 1398.33 x10E3/uL, the “ALANINE AMINOTRANSFERASE” value [4] was 34 u/L and the ALBUMIN [4] was 3.5 G/DL. The “ALKALINE PHOSPHATASE” value [4] was 320.33 u/L, the “ASPARTATE AMINOTRANSFERASE” value [4] was 59.67 u/L and the “BLOOD UREA NITROGEN” value [4] was 15.67 mg/dL. For the same compound, the CHLORIDE [4] was 104.67 MEQ/L, the CHOLESTEROL [4] was 70.33 mg/dL and the “CREATINE PHOSPHOKINASE” value [4] was 96 u/L. The CREATININE [4] was 0.53 mg/dL, the GLUCOSE [4] was 186.33 mg/dL and the PHOSPHORUS [4] was 12.03 mg/dL. The POTASSIUM [4] was 6.2 MEQ/L, the SODIUM [4] was 149.33 MEQ/L and the “TOTAL BILIRUBIN” value [4] was 0.3 mg/dL. The “TOTAL PROTEIN” value [4] was 6.27 G/DL.
